Source: US4061757A, “Compounds having juvenile hormone activity” (A/S Cheminova, priority 1971, dated 1977)

Columns and labels:
Aedes aegypti L = test: Aedes test (same test as for Culex); format: in vivo; details: Table I, mature larvae, loss of 50% of test animals, read-out: IC-50 eclos
Protocol: (§1) The biological tests are examplified by tests on the yellow mealworm, Tenebrio molitor L, Galleria mellonella L, Culex pipiens L, Aedes aegypti L and Drosophila melanogaster L.
Culex test: The compounds are tested on mature larvae. The concentration (IC-50 eclos.) is given in ppm.
Aedes test: The same test as for Culex.

Tenebrio molitor L = test: Tenebrio test (topical application to pupae, morphological inhibition of adult characters); format: in vivo, Tenebrio molitor L (yellow mealworm); details: Table I; topical, acetone solution, 0.5 to 2 hours old pupae (150 mg), 27° C, 70% RH
Protocol: as §1
Tenebrio test: The material in question is applied topically to the abdomen of 0.5 to 2 hours old pupae of the said species, as a solution in acetone. The pupae are held at 27° C and 70% RH, ecdysis occuring 5 to 7 days later. The degree of inhibition of adult characters is referred to an arbitrary scale, where a morphologically perfect adult is given the character 0%, and a perfect second pupae 100%. In Table 1 is given the morphological inhibition dose 50% (ID 50 morph.) for some of the chemicals invented, in μg per standard pupa (150 mg). ID 50 morph. refers to specimens showing predominantly adult characters in the front part, pupal characters in the abdomen.
ID50 morph is as said above the dose causing development of individuals showing predominantly adult characters in the front part and pupal characters in the abdomen. It is known that ID50 -doses in general are 10 times greater than ED50 -doses.

Culex pipiens L = test: Culex test (mature larvae, loss of 50% of test animals); format: in vivo; details: Table I, read-out: IC-50 eclos.
Protocol: The biological tests are examplified by tests on the yellow mealworm, Tenebrio molitor L, Galleria mellonella L, Culex pipiens L, Aedes aegypti L and Drosophila melanogaster L. Culex test: The compounds are tested on mature larvae. The concentration (IC-50 eclos.) is given in ppm.

[1] = tested on: Drosophila melanogaster L; test: Drosophila test (compound in agar based food, pupae which fail in ecdysis); format: in vivo; details: Table I, in artificial agar based food, pupae failing in ecdysis
Protocol: as §1
Drosophila test: One ml of acetone solution of the compound to be tested is mixed with an artificial agar based food mixture just before this solidifies. Ten less than one day old adult flies -- five of each sex -- are added, and all abnormalities observed for two generations. Juvenile hormone activity is especially noted in the pupae which fail in ecdysis. EC50 -eclos. is given in ppm.

Tenebrio = details: Table II, known compounds; dose causing abnormal development of 50% of treated pupae; data from Nature, Vol. 232, Aug. 13, 1971; cited from earlier work

Row | SMILES | IC50 (inhibition of eclosion) (Aedes aegypti L) | ID-50 morph. (Tenebrio molitor L) | IC50 for inhibition of adult emergence (eclosion) (Culex pipiens L) | EC-50 eclos [1] | ED50 (Tenebrio)
1 | CCOC(C)(C)CCCC(C)CCOc1ccc(CC)nc1 (centres unmarked) [Compound 39, 7-Ethoxy-3,7-dimethyl-1l-(96'-ethyl-3'-pyridyloxy)-octane] | 0.5 µg/mL | 0.01 μg/pupa | < 10 µg/mL | > 100 ppm | 
2 | C/C(=C\COc1ccc(C)cc1)CCC1OC1(C)C (centres unmarked) [R CH3, n 1] |  |  |  |  | 0,05 μg/pupa
